# Entries after “also recorded” stand apart in the source; their conditions may differ.
# System: primary rat dopaminergic neurons (TH positive neurons) injured with 6-OHDA
# Assay: Neuroprotective effect following exposure to 6-OHDA, with or without pathway inhibitors
# Format: cell-based
# Procedure: This study investigated the mode of action of CR777 on rat primary mesencephalic cultures following exposure to 6-OHDA. The effect of CR777 on level of GDNF and BDNF mRNA was investigated after 24 h 6-OHDA incubation and CR777. The main pathways of survival, regulation of the apoptosis and neuronal growth were investigated in presence of CR777 and inhibitors of these different pathways. The following pathways were investigated using antagonists of different proteins of interest: • RAS (small GTPase)/RAF (proto-oncogene Serine/threonine kinase); • Peroxisome proliferator-activated receptor gamma (PPAR-γ) (nuclear receptor) • The Pi3K/AKT/mTor (cell signaling pathway that plays a key role in cellular homeostasis through its role in regulation of apoptosis, cell growth, cell cycle). • NO (nitric oxide) pathway
# Rat dopaminergic neurons were cultured as described in Example 4.
# On day 6 of culture, the medium was removed and fresh medium was added, without or with 6-OHDA (Sigma, Batch: 083M4624V) at 20 μM diluted in control medium and let for 48 h. In parallel, all inhibitors were solved in culture medium and were added 2 h before the 6-OHDA application (namely 1 h before test compounds application).
# CR777 was solved in DMSO at 10 mM, diluted in culture medium and then pre-incubated with mesencephalic neurons 1 hour before the 6-OHDA application (48 h). 6 wells per condition were assessed.
# For survival and α-syn aggregation, compound was tested on 1 culture in a 96 well-plate (6 wells per condition), was pre-incubated 1 hour before 6-OHDA and let for 48 hours.
# The following conditions were assessed: • Control (culture medium) • +6-OHDA (20 μM, 48 h) • +6-OHDA (20 μM, 48 h)+CR777 1 μM • +6-OHDA (20 μM, 48 h)+CR777 100 nM • +6-OHDA (20 μM, 48 h)+CR777 10 nM • +6-OHDA (20 μM, 48 h)+CR777 1 nM
# For pathway investigation, the compound was tested on one primary dopaminergic culture in 96 well plates (6 wells per conditions).
# Inhibitors were pre-incubated for 2 hours before 6-OHDA application and CR777 was pre-incubated 1 hour before 6-OHDA application.
# The antagonists/inhibitors used in the experiments are the following: • FTS: farnesylthiosalicylic acid selectively disrupts the association of chronically active Ras proteins with the plasma membrane. • BEZ-235: dual PI3K/mTOR inhibitor. • T0070907: selective PPAR-γ antagonist • L-NAME (Nitro-L-arginine methyl ester): precursor to NOS inhibitor, L-NNA—requires bioactivation to become a fully functional inhibitor. • ABT-199: selective inhibitor of Bcl-2.
# 48 hours after intoxication, the cell culture supernatant was taken off and the dopaminergic neurons were fixed by a solution of 4% paraformaldehyde in PBS, pH=7.3 for 20 min at room temperature.
# After permeabilization with 0.1% of saponin, cells were incubated for 2 hours with:
# monoclonal Anti-Tyrosine Hydroxylase (TH) antibody produced in mouse at dilution of 1/10000 in PBS containing 1% FCS, 0.1% saponin,
# polyclonal anti-α-syn antibody produced in rabbit at dilution of 1/200 for 2 h at room temperature.
# For each condition, 20 pictures/well (representative of ˜the all well area) were automatically taken using ImageXpress (Molecular Devices) with 10× magnification. All images were taken with the same conditions. Analysis were automatically performed by using Custom Module Editor (Molecular Devices).
# The following endpoint was investigated for each culture well: • The total dopaminergic neuron survival (TH staining), • The total area of α-syn on TH positive neuron (overlapping α-syn/TH)
# After permeabilization with 0.1% of saponin, cells were incubated for 2 hours with monoclonal Anti-Tyrosine Hydroxylase (TH) antibody produced in mouse at dilution of 1/10000 in PBS containing 1% FCS, 0.1% saponin, for 2 h at room temperature.
# The total dopaminergic neuron survival (TH staining) was investigated for each culture well.
structure (smiles),measurement,setting,value
CC1=C(CO)C(=O)O[C@@H]([C@@H](C)[C@H]2CCC3C4C[C@H](SC[C@H](NC(=O)CC[C@@H](N)C(=O)O)C(=O)NCC(=O)O)[C@]5(O)[C@@H](O)C=CC(=O)[C@]5(C)C4CC[C@@]32C)C1 (some centres unmarked) [CR777],neuroprotective effect (TH neuron survival) in presence of Bcl2 pathway inhibitor,"CR777 10 nM + ABT 199 (5 μM), 6-OHDA 20 μM",did not induce any changes
same,neuroprotective effect (TH neuron survival) in presence of PI3K/AKT/mTOR pathway inhibitor,"CR777 10 nM + BEZ235 (40 nM), 6-OHDA 20 μM",fully abolished
same,neuroprotective effect (TH neuron survival) in presence of Ras/Raf pathway inhibitor,"CR777 10 nM + FTS (4 μM), 6-OHDA 20 μM",did not induce any changes
same,neuroprotective effect (TH neuron survival) in presence of nNOS pathway inhibitor,"CR777 10 nM + L-NAME (100 μM), 6-OHDA 20 μM",did not induce any changes
same,neuroprotective effect (TH neuron survival) in presence of PPARγ pathway inhibitor,"CR777 10 nM + T0070907 (1 μM), 6-OHDA 20 μM",no effect was observed
same,TH positive neuron survival,"CR777 10 nM added 1 h before 6-OHDA (20 μM, 48 h), bell shape curve",significantly protected neurons from death; also recorded: significant protective effect; also recorded: able to protect TH positive neurons
same,α-syn aggregation in TH positive neurons,"CR777 10 and 100 nM, 6-OHDA 20 μM, 48 h",able to reduce the aggregation; also recorded: partially protected
same,dopaminergic neurite network,"all concentrations tested (1 nM to 1 μM), 6-OHDA 20 μM, 48 h",significant protective effect
